From patent US20260167659A1, “STING AGONISTS” (LIGACHEM BIOSCIENCES INC., priority 2022, published 2026)

Columns and labels:
Type in all cases: cell-based
Human THP-1 cells = experiment: THP-1 activation, CD86 and HLA-DR by flow cytometry; settings: THP-1, 5-fold serial dilution from 1 μM, 48 hours
Protocol: To test the effect of STING agonist compounds described herein in the activation of innate and adaptive immune cells, flow cytometry (FACS) was performed. Human THP-1 cells (Korean Cell Line Bank, #40202) and PBMCs were seeded at 1.2×10^5 cells per well in a round-bottomed 96-well plate in RPMI 1640 medium (Gibco, #22400097) supplemented with 10% heat-inactivated FBS and 1× Antibiotic-Antimycotic (Gibco, #15240062) and rested for 24 hours at 37° C. The cells were stimulated with the STING agonist compounds as described; For THP-1 stimulation, the cells were treated with the STING agonist compound (Compound 313) in a 5-fold serial dilution from 1 μM for 48 hours. The induction of cell surface activation markers, CD86 (co-stimulatory molecule) and HLA-DR (MHC-class II), was measured by flow cytometry. […] For flow cytometry analysis, the stimulated cells were centrifuged at 300 g for 5 minutes at 4° C., and then resuspended in FACS buffer (2% FBS, 2 mM EDTA in PBS). […] Subsequently, the cells were stained with fluorescence-conjugated antibodies against CD8, CD3, CD56, and CD69 for CD8 T and NK cells activation and against CD86 and MHC-II for THP-1 naïve cells activation for 40 minutes at 4° C. After washing three times with FACS buffer, the cells were resuspended in FACS buffer and analyzed by FACSlyric (BD bioscience). The data were analyzed with Flowjo 9.0 software (BD bioscience).

hSTING-WT (R232) = molecular target: T1, hSTING-WT (R232) (Homo sapiens, UniProt Q86WV6, H232R); experiment: STING activation, THP1-Dual IRF3 reporter assay, hSTING-R232 cells; settings: IRF3 luciferase reporter, 24 hours, read-out: STING activity using hSTING-R232 cells EC50
T1 construct: host or cells: THP1-Dual cells (human monocytes) with knocked-in hSTING R232
Method in brief: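 THP1-Dual monocytes carrying knocked-in hSTING-WT (R232), H232 or HAQ variants were seeded at 9.0×10^4 cells per well and treated next day with serially diluted compounds for 24 h. Secreted IRF-Lucia luciferase in the supernatant was read by luminescence, and EC50 values were fitted with a 4-parameter model.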

[1] = Normal cell cytotoxicity in CD34+ HSC, CellTiter-Glo; settings: human, CD34+ hematopoietic stem cells (HSCs), read-out: In vitro cell cytotoxicity in CD34+ HSC CC50
Protocol: The CD34^+ hematopoietic stem cells (HSCs) were purchased from […]™ (#70002.3). The cells (2×10^4 cells per well) were cultured in StemSpan™ SFEM II medium supplemented with StemSpan™ CD34+ Expansion Supplement (#02691) in a 6-well plate at 37° C. for 7 days. On day 3 or 4, an equal volume of fresh complete medium was added into the cell culture. On day 7, the cells (4×10^4 cells per well) were seeded in a 96-well white plate and rested for 24 hours in the same condition.
After 72 hours, the cell viability was measured using CellTiter-Glo Luminescent Cell Viability Assay (Promega, #G7573) according to the manufacture's instruction. The signal was detected using an EnVision Xcite multilabel reader and data were analyzed using GraphPad Prism 8 software.

T1 sequence (Q86WV6 whole entry H232R): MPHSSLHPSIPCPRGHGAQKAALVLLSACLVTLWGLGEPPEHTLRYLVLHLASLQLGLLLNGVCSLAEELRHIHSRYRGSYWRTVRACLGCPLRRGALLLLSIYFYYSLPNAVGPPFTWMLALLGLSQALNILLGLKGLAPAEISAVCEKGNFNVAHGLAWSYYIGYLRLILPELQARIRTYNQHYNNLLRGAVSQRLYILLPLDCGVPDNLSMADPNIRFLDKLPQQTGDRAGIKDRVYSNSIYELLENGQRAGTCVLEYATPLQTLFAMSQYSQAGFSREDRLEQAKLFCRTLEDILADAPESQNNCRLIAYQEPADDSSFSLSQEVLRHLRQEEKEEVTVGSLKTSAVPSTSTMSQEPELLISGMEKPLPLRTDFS

EC50 (hSTING-WT (R232)): 68.3 nM
Compound: CCn1nc(C)cc1C(=O)Nc1nc2cc(C(N)=O)cc(OC/C=C/Cn3cc(NC(=O)OCc4ccc(O[C@@H]5O[C@H](C(=O)O)[C@@H](O)[C@H](O)[C@H]5O)c(C(=O)NCCOCCOCCN(C)C)c4)cn3)c2n1C/C=C/Cn1c(NC(=O)c2cc(C)nn2CC)nc2cc(C(N)=O)cc(OCCCC(=O)O)c21 [Compound 313]
co-stimulatory molecule CD86 on cell surface (Human THP-1 cells; FIG. 3A): Up-regulation
MHC class II molecule HLA-DR on cell surface (Human THP-1 cells; FIG. 3B): Up-regulation
CC50 at 72 h [1]: 44.5 nM
